Test results taken from patent publication US20100021885A1, “REAGENT SETS AND GENE SIGNATURES FOR NON-GENOTOXIC HEPATOCARCINOGENICITY” (priority 2006, published 2010).
Like-named read-outs stand apart in the source and are kept apart here.

Experiments:
[1] = tested on: livers from treated male Sprague-Dawley rats
Method: Briefly, in vivo short-term repeat dose rat studies were conducted on over 580 test compounds, including marketed and withdrawn drugs, environmental and industrial toxicants, and standard biochemical reagents. Rats (three per group) were dosed daily at either a low or high dose. […] Animals were necropsied on days 0.25, 1, 3, and 5 or 7. Up to 13 tissues (e.g., liver, kidney, heart, bone marrow, blood, spleen, brain, intestine, glandular and nonglandular stomach, lung, muscle, and gonads) were collected for histopathological evaluation and microarray expression profiling on the Amersham CodeLink™ RU1 platform (also referred to herein as “CodeLink Uniset™ Rat 1 Bioarray”). In addition, a clinical pathology panel consisting of 37 clinical chemistry and hematology parameters was generated from blood samples collected on days 3 and 5.
The remaining 21 NGTC chemicals and 26 NC chemicals were reserved for independent validation of the signature. Each chemical was evaluated in a short term repeat dose in vivo study in male Sprague-Dawley rats (n=3/group). The livers from treated and control rats were collected after 1, 3 and 5 days of dosing and RNA was extracted for gene expression profiling. Gene expression changes in treated animals were compared to suitably matched controls and represented as average log10 ratios for each treatment group. Since the development of tumors is a long term multi-step process, the 100 training set chemicals were profiled at the latest time point in order to capture gene expression changes that were likely to be reflective of repeat dose treatment effects that contribute to carcinogenicity and not reflective of an initial stimulus following a single dose that may be transient in nature.
Male Sprague-Dawley (Crl:CD®(SD)(IGS)BR) rats (weight matched, 7 to 8 weeks of age and averaging 200 to 250 g) were purchased from Charles River Laboratories (Portage, Mich.) and housed individually in hanging, stainless steel, wire-bottom cages in a temperature (66-77° F.), light (12-hour dark/light cycle) and humidity (30-70%) controlled room. […] Housing and treatment of the animals were in accordance with regulations outlined in the USDA Animal Welfare Act (9 CFR Parts 1, 2 and 3). Animals were assigned to groups such that mean body weights were within 10% of the mean vehicle control group. Test articles were administered either orally (10 ml of corn oil/kg body weight) or by intra-peritoneal injection (5 ml of saline/kg body weight), as indicated. Animals were dosed once daily starting on day 0, and necropsied 24 hrs after the last dose, as indicated. An equivalent number of time- and vehicle-matched control rats were treated concurrently.
Briefly, liver samples from 3 rats were chosen from each treatment and control group for gene expression analysis on the Codelink Uniset™ Rat 1 Bioarray (GE Healthcare Bio-Sciences Corp., Piscataway, N.J.). A complete list of probes on the array is provided on the Amersham Biosciences web site (www.amershambiosciences.com). Log transformed signal data for all probes were array-wise normalized used Array Qualifier (Novation Biosciences, Palo Alto, Calif.), a non-linear centralization normalization procedure adapted for the CodeLink microarray platform. Log10 ratios for each experimental group are computed as the difference between the average of the logs of the normalized experimental signals and the average of the logs of the normalized control signals for each gene.
where S is the scalar product and b is the bias term. Evaluation of S for a test experiment across the n genes in the signature determines what side of the hyperplane in m dimensional space the test experiment lies, and thus the result of the classification. Experiments with scalar products greater than 0 are considered positive for non-genotoxic hepatocarcinogenicity.

[2] = tested on: liver of rats; conditions: cited from earlier work
[3] = 37 gene signature, maximum scalar product over days 1, 3 and 5, scalar product greater than zero = positive
[4] = maximum of days 1, 3, 5, greater than zero = classified non-genotoxic hepatocarcinogen
[5] = test chemicals, literature class NGTC or NC
[6] = male, Sprague-Dawley, rat, in vivo

C[C@]12CC[C@H]3[C@@H](CCC4=CC(=O)CC[C@@]43C)[C@@H]1CC[C@@H]2O [TESTOSTERONE]
Day 1 (scalar product) ([1]; male, rat, in vivo): 0.25 | Day 3 (scalar product) ([1]; male, rat, in vivo): 0.45 | Day 5 (scalar product) ([1]; male, rat, in vivo): −0.63 | Max (maximum scalar product observed over the multiple time points) ([1]; male, rat, in vivo): 0.45 | Class ([2]; rat, in vivo): NGTC

ClC(Cl)(Cl)Cl [carbon tetrachloride, reference compound]
signature prediction for non-genotoxic hepatocarcinogenicity [1, 3]: positive | Max (maximum scalar product observed over the multiple time points) [1, 4]: 0.50 | Class [2, 5]: NGTC

CC[C@]1(O)CC[C@H]2[C@@H]3CCC4=CCCC[C@@H]4[C@H]3CC[C@@]21C [ETHYLESTRENOL]
Max (maximum scalar product observed over the multiple time points) [1, 4]: 2.25 | Class [2, 5]: NGTC

NC(=O)N1c2ccccc2C=Cc2ccccc21 [CARBAMAZEPINE]
Max (maximum scalar product observed over the multiple time points) [1, 6]: −0.35 | Class [2, 5]: NGTC

C[C@]12Cc3c[nH]nc3C[C@@H]1CC[C@@H]1[C@@H]2CC[C@@]2(C)[C@H]1CC[C@]2(C)O [STANOZOLOL]
Max (maximum scalar product observed over the multiple time points) [1, 4]: 0.54 | Class [2, 5]: NGTC

COC(=O)Nc1nc2ccc([S+]([O-])c3ccccc3)cc2[nH]1 (centres unmarked) [OXFENDAZOLE]
Max (maximum scalar product observed over the multiple time points) [1, 6]: 0.32 | Class [2, 5]: NGTC

O=c1cc(-c2ccccc2)oc2ccc3ccccc3c12 [BETA-NAPHTHOFLAVONE]
Max (maximum scalar product observed over the multiple time points) [1, 4]: 0.81 | Class [2, 5]: NGTC

ClC(Cl)Cl [chloroform, reference compound]
Day 1 (scalar product) ([1]; male, rat, in vivo): 1.50 | Day 3 (scalar product) ([1]; male, rat, in vivo): 0.74 | Day 5 (scalar product) ([1]; male, rat, in vivo): 0.27 | Max (maximum scalar product observed over the multiple time points) ([1]; male, rat, in vivo): 1.50 | Class ([2]; rat, in vivo): NGTC

CCCCC(CC)COC(=O)c1ccccc1C(=O)OCC(CC)CCCC (centres unmarked) [BIS(2-ETHYLHEXYL)PHTHALATE]
Day 1 (scalar product) ([1]; rat, in vivo): 0.47 | Day 3 (scalar product) ([1]; rat, in vivo): 1.04 | Day 5 (scalar product) ([1]; rat, in vivo): −0.09 | Max (maximum scalar product observed over the multiple time points) ([1]; rat, in vivo): 1.04 | Class ([2]; rat, in vivo): NGTC

NN [hydrazine, reference compound]
Day 1 (scalar product) ([1]; male, rat, in vivo): −0.10 | Day 3 (scalar product) ([1]; male, rat, in vivo): −1.31 | Day 5 (scalar product) ([1]; male, rat, in vivo): −1.48 | Max (maximum scalar product observed over the multiple time points) ([1]; male, rat, in vivo): −0.10 | signature prediction for non-genotoxic hepatocarcinogenicity ([1]; rat, in vivo): negative | Class ([2]; rat, in vivo): GTC

CC(=O)O[C@]1(C(C)=O)CC[C@H]2[C@@H]3C=C(Cl)C4=CC(=O)[C@@H]5C[C@@H]5[C@]4(C)[C@H]3CC[C@@]21C [CYPROTERONE ACETATE]
Max (maximum scalar product observed over the multiple time points) [1, 6]: 1.16 | Class [2, 5]: NGTC

CC/C(=C(/CC)c1ccc(O)cc1)c1ccc(O)cc1 [DIETHYLSTILBESTROL]
Max (maximum scalar product observed over the multiple time points) [1, 6]: 2.75 | Class [2, 5]: NGTC

CC(=O)S[C@@H]1CC2=CC(=O)CC[C@]2(C)[C@H]2CC[C@@]3(C)[C@@H](CC[C@@]34CCC(=O)O4)[C@H]12 [SPIRONOLACTONE]
Max (maximum scalar product observed over the multiple time points) [1, 6]: 0.37 | Class [2, 5]: NGTC

CCN(CC)N=O [N-nitrosodiethylamine, reference compound]
Day 1 (scalar product) ([1]; male, rat, in vivo): −2.17 | Day 3 (scalar product) ([1]; male, rat, in vivo): −1.83 | Day 5 (scalar product) ([1]; male, rat, in vivo): −1.41 | Max (maximum scalar product observed over the multiple time points) ([1]; male, rat, in vivo): −1.41 | signature prediction for non-genotoxic hepatocarcinogenicity ([1]; rat, in vivo): negative | Class ([2]; rat, in vivo): GTC

CC(=O)Nc1ccc2c(c1)Cc1ccccc1-2 [2-acetylaminofluorene, reference compound]
signature prediction for non-genotoxic hepatocarcinogenicity [1, 3]: weakly positive | scalar product (SP) ([1]; 37 gene signature, maximum scalar product over the time points): 0.03 | Max (maximum scalar product observed over the multiple time points) [1, 4]: 0.03 | Class ([2]; genotoxic hepatocarcinogens section): GTC
